The source of these data is patent publication US9562035B2, “Benzamide derivative useful as FASN inhibitors for the treatment of cancer” (Janssen Pharmaceutica NV, priority 2013, dated 2017).

Structures are written as SMILES. Read-outs that look alike come from different tables or passages of the source. Bounds are passed on as bounds.

By EC50 is commonly meant the concentration needed to bring the measured effect to its halfway point. As a reminder, the CC50 is the concentration at which the toxic effect on the cells reaches its halfway point.

Data set [1] concerns the target T1, hFASN enzyme (full length) (Homo sapiens, UniProt P49327).
T1 construct: 10 μL hFASN enzyme (full length, 300 ng, purified in house); made in house
Nature of the data set: Fatty Acid Synthase (FASN) Inhibition Scintillation Proximity Assay. The settings on record: for IC50: mean where tested more than once, ~ = standard error of pIC50 larger than 0.5; for inhibition at 10 µM: read-out: FASN % Effect @1E−05M. The format is biochemical. The essentials:
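Purified full-length human FASN (300 ng) incubated 60 min at room temperature with NADPH, [3H]-acetyl-CoA and malonyl-CoA in 100 mM KH2PO4 pH 7.5, 1 mM DTT; compound at 30 μM to 0.01 μM. [3H]-palmitate captured by SPA imaging beads; IC50 from 4-parameter fit, reported as pIC50.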
In general terms: Scintillation proximity formats need no separation of bound from free tracer.

The next data set relates to A2780 ovarian cells. Nature of the data set: A2780 Ovarian Cell Proliferation Assay in Lipid Reduced Medium, with Palmitate (control). The format is cell-based. The settings on record: Homo sapiens. The essentials: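 A2780 cells were seeded in RPMI1640 with 10% FCS, then switched next day to medium with 10% lipid-reduced serum. Compound was added with final 25 μM palmitate, 0.2% fatty-acid-free BSA and 0.2% DMSO, and incubated 96 h at 37 °C. Read-out was MTT absorbance at 544 nm; pIC50 = −log(IC50) from curve fit.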

A further data set relates to HBV. Nature of the data set: Antiviral Activity Against HBV Replication (HBV DNA, HepG2.117 cell line). The settings on record: Hepatitis B virus, 72 h; HepG2.117 cells, 3 days, HBV DNA by realtime PCR. The format is cell-based. The protocol:
(§1) The anti-HBV activity was measured using the HepG2.117 cell line, a stable, inducibly HBV producing cell line (SUN D., et al., “Stable HepG2- and Huh7-based human hepatoma cell lines for efficient regulated expression of infectious hepatitis B virus”, J. of Hepatology, 2006, pp 636-645, Vol. 45) which replicates HBV in the absence of doxycycline (Tet-off system). For the antiviral assay, HBV replication was induced, followed by a treatment with serially diluted compound in 96-well plates in duplicate. After 3 days of treatment, the antiviral activity was determined by quantification of intracellular or extracellular HBV DNA using realtime PCR and an HBV specific primer set and probe. Cytotoxicity of the test compounds was tested using HepG2 cells, incubated for 4 days in the presence of test compounds. The viability of the cells was assessed using a Resazurin assay. The CC50 was defined as the 50% concentration for cytotoxicity

Data set [2] can be described thus: Cytotoxicity in HepG2 cells (Resazurin assay). The format is cell-based. As to conditions: human, read-out: CC50 (Toxicity HepG2-4d). How it is done:
as §1
(In general: The colour change of resazurin is a common sign of viable cells or microbes.)

The mark [3] stands for this setting: A2780, lipid reduced medium, 25 μM palmitate, 96 h, MTT, read-out: Proliferation A2780 with Palmitate pIC50 (converted).

T1 sequence (P49327 whole entry): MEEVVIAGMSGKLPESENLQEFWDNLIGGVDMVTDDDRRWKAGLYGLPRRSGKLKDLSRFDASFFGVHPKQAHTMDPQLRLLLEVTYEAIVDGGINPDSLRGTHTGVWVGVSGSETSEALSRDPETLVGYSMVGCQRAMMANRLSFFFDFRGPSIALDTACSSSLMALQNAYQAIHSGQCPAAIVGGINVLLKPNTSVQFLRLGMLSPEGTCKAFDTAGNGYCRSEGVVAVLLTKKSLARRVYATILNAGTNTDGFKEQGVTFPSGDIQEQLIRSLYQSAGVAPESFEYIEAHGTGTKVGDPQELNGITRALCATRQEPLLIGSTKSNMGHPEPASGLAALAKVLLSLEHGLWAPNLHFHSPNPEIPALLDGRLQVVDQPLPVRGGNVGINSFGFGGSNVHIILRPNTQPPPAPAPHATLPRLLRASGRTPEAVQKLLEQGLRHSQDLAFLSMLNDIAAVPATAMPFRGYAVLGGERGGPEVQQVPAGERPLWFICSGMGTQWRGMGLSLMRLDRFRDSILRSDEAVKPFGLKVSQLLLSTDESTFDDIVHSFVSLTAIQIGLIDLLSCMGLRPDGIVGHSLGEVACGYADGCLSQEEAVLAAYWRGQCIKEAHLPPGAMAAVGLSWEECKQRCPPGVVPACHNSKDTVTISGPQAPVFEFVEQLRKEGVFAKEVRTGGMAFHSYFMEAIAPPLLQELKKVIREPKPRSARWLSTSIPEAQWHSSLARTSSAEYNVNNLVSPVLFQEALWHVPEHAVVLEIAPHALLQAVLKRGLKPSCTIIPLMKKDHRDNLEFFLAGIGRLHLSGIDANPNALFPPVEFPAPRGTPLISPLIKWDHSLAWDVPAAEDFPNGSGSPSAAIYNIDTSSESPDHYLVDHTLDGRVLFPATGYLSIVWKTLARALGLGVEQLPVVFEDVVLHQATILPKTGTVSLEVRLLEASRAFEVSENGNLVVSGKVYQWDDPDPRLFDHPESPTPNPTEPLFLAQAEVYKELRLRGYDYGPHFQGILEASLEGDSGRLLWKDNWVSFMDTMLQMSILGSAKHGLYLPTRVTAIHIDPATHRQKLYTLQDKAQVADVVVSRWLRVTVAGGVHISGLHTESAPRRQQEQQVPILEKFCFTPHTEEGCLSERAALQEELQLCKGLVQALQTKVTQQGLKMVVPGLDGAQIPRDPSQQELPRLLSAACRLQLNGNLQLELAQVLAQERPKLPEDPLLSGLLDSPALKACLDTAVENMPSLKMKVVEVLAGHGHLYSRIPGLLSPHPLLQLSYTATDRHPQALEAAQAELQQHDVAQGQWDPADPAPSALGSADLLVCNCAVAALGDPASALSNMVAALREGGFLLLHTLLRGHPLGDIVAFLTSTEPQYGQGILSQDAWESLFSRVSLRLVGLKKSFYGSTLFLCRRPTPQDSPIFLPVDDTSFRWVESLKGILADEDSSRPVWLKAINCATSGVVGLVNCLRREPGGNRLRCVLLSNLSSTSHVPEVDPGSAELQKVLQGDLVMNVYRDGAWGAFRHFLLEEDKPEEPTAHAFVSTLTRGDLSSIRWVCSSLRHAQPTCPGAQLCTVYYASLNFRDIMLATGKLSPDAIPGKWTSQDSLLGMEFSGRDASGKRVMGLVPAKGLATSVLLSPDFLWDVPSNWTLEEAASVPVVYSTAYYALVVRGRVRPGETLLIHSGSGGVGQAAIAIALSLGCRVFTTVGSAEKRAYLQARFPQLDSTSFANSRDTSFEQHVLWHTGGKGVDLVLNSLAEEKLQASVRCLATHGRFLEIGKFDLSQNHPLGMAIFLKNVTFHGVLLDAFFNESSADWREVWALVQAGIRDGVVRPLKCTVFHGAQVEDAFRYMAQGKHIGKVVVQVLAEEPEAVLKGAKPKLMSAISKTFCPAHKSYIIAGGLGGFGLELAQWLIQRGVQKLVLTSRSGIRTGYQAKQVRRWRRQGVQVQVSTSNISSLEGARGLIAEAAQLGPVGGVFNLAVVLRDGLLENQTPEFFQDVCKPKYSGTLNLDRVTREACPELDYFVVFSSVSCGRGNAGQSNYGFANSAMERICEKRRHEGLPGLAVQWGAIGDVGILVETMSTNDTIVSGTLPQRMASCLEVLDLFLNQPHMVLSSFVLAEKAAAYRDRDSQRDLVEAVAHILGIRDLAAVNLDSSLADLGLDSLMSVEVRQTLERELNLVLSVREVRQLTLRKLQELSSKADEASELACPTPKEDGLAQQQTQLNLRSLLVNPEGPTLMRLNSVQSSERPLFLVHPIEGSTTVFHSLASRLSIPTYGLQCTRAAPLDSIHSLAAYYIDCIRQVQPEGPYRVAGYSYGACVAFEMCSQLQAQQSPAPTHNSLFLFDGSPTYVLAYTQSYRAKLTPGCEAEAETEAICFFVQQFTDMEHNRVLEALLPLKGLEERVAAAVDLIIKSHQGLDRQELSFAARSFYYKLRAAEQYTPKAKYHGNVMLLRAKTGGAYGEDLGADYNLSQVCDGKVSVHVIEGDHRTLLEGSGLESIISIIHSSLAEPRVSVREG

Turning to `CC(C)N(C)c1ccc(C(=O)N2CCC(c3ccc(-c4cnn(C)c4)cc3)CC2)cc1NC(=O)c1ccc(Cl)nc1` [Compound 274, 6-chloro-N-(2-(isopropyl(methyl)amino)-5-(4-(4-(1-methyl-1H-pyrazol-4-yl)phenyl)piperidine-1-carbonyl)phenyl)nicotinamide], in data set [1], the IC50 is 437 nM and the inhibition at 10 µM came to 88%. For the same molecule, the IC50 in the data set on A2780 ovarian cells (setting [3]) was > 10 µM.
Take `CN(C)c1ccc(C(=O)N2CCC(c3ccc(-c4cnn(C)c4)cc3)CC2)cc1NC(=O)c1ccc(Cl)nc1` [Compound 275, 6-chloro-N-(2-(dimethylamino)-5-(4-(4-(1-methyl-1H-pyrazol-4-yl)phenyl)piperidine-1-carbonyl)phenyl)nicotinamide]: in data set [1], the IC50 is 56.2 nM and the inhibition at 10 µM came out at 99%. For the same molecule, the IC50 in the data set with A2780 ovarian cells (setting [3]) was > 10 µM.
Turning to `CC(C)Nc1ccc(C(=O)Nc2cc(C(=O)N3CCC(c4ccc(-c5cnn(C)c5)cc4)CC3)ccc2N(C)C(C)C)cn1` [Compound 276, N-(2-(isopropyl(methyl)amino)-5-(4-(4-(1-methyl-1H-pyrazol-4-yl)phenyl)piperidine-1-carbonyl)phenyl)-6-(isopropylamino)nicotinamide], the IC50 in data set [1] was 372 nM; with A2780 ovarian cells (setting [3]) it was > 10 µM. Besides, in data set [1], the inhibition at 10 µM was determined as 93%.
Turning to `COCCN(C)c1ccc(C(=O)N2CCC(c3ccc(-c4cnn(C)c4)cc3)CC2)cc1NC(=O)C1CC1` [Compound 278, N-(2-((2-methoxyethyl)(methyl)amino)-5-(4-(4-(1-methyl-1H-pyrazol-4-yl)phenyl)piperidine-1-carbonyl)phenyl)cyclopropanecarboxamide], in data set [1], the IC50 was 813 nM and the inhibition at 10 µM turned out to be 85%. Moreover, in the data set on A2780 ovarian cells (setting [3]), the IC50 is > 10 µM.
The matching figures for `CC(C)Nc1ccc(C(=O)Nc2cc(C(=O)N3CCC(c4ccc(-c5cnn(C)c5)cc4)CC3)ccc2N(C)C)cn1` [Compound 280, N-(2-(dimethylamino)-5-(4-(4-(1-methyl-1H-pyrazol-4-yl)phenyl)piperidine-1-carbonyl)phenyl)-6-(isopropylamino)nicotinamide]: 70.8 nM, 99% and 6.17 µM.
The corresponding values for `COCCN(C)c1ccc(C(=O)N2CCC(c3ccc(-c4cnn(C)c4)cc3)CC2)cc1NC(=O)c1ccc(NC(C)C)nc1` [Compound 281, 6-(isopropylamino)-N-(2((2-methoxyethyl)(methyl)amino)-5-(4-(4-(1-methyl-1H-pyrazol-4-yl)phenyl)piperidine-1-carbonyl)phenyl)nicotinamide] are 457 nM, 93% and ~6.31 µM.
Take `COCCNc1ccc(C(=O)N2CCC(c3ccc(-c4cnn(C)c4)cc3)CC2)cc1NC(=O)c1ccc(NC(C)C)nc1` [Compound 282, 6-(isopropylamino)-N-(2-((2-methoxyethyl)amino)-5-(4-(4-(1-methyl-1H-Pyrazol-4-yl)phenyl)piperidine-1-carbonyl)phenyl)nicotinamide]: the IC50 was 70.8 nM in data set [1] and > 10 µM with A2780 ovarian cells (setting [3]). The inhibition at 10 µM in data set [1] worked out at 99%.
For the molecule `CC(C)Nc1ccc(C(=O)Nc2cc(C(=O)N3CCC(c4ccc(-c5cnn(C)c5)cc4)CC3)ccc2NC2CC2)cn1` [Compound 283, N-(2-(cyclopropylamino)-5-(4-(4-(1-methyl-1H-pyrazol-4-yl)phenyl)piperidine-1-carbonyl)phenyl)-6-(isopropylamino)nicotinamide], the IC50 in data set [1] is 110 nM; in the data set with A2780 ovarian cells (setting [3]), > 10 µM. Besides, in data set [1], the inhibition at 10 µM was found to be 98%.
`CC(C)Nc1ccc(C(=O)Nc2cc(C(=O)N3CCC(c4ccc(-c5cnn(C)c5)cc4)CC3)ccc2NC(C)C)cn1` [Compound 284, 6-(isopropylamino)-N-(2-(isopropylamino)-5-(4-(4-(1-methyl-1H-pyrazol-4-yl)phenyl)piperidine-1-carbonyl)phenyl)nicotinamide]: the results for the IC50 (in data set [1]; in the data set with A2780 ovarian cells (setting [3])) were 126 nM and > 10 µM, respectively. In data set [1], the inhibition at 10 µM amounted to 95%.
The corresponding values for `CC(C)Nc1ccc(C(=O)Nc2cc(C(=O)N3CCC(c4ccc(-c5cnn(C)c5)cc4)CC3)ccc2N)cn1` [Compound 285, N-(2-amino-5-(4-(4-(1-methyl-1H-pyrazol-4-yl)phenyl)piperidine-1-carbonyl)phenyl)-6-(isopropylamino)nicotinamide] are ~166 nM, 3.39 µM and 74%.
As for `COCCNc1ccc(C(=O)N2CCC(c3ccc(-c4cnn(C)c4)cc3)CC2)cc1NC(=O)C1CC1` [Compound 286, N-(2-((2-methoxyethyl)amino)-5-(4-(4-(1-methyl-1H-pyrazol-4-yl)phenyl)piperidine-1-carbonyl)phenyl)cyclopropanecarboxamide], in data set [1], the IC50 is 513 nM and the inhibition at 10 µM came out at 91%. The IC50 in the data set on A2780 ovarian cells (setting [3]) was > 10 µM.
Regarding `CC(C)Nc1ccc(C(=O)Nc2cc(C(=O)N3CCC(c4ccc(-c5cnn(C)c5)cc4)CC3)ccc2N(C)C2CC2)cn1` [Compound 287, N-(2-(cyclopropyl(methyl)amino)-5-(4-(4-(1-methyl-1H-pyrazol-4-yl)phenyl)piperidine-1-carbonyl)phenyl)-6-(isopropylamino)nicotinamide], the figures for the IC50 (in data set [1]; with A2780 ovarian cells (setting [3])) were 100 nM and > 10 µM, respectively. The inhibition at 10 µM in data set [1] stood at 98%.
In the case of `CN(c1ccc(C(=O)N2CCC(c3ccc(-c4cnn(C)c4)cc3)CC2)cc1NC(=O)C1CC1)C1CC1` [Compound 288, N-(2-(cyclopropyl(methyl)amino)-5-(4-(4-(1-methyl-1H-pyrazol-4-yl)phenyl)piperidine-1-carbonyl)phenyl)cyclopropanecarboxamide], in data set [1], the IC50 was 871 nM and the inhibition at 10 µM was 88%. For the same molecule, the IC50 in the data set with A2780 ovarian cells (setting [3]) was > 10 µM.
Turning to `Cc1ccc(C(=O)N2CCC(c3ccc(-c4cnn(C)c4)cc3)CC2)cc1NC(=O)c1ccc(NC(C)C)nc1` [Compound #32, 6-(isopropylamino)-N-(2-methyl-5-(4-(4-(1-methyl-1H-pyrazol-4-yl)phenyl)piperidine-1-carbonyl)phenyl)nicotinamide], in data set [1], the IC50 was 26.9 nM and the inhibition at 10 µM worked out at 104%. For the same molecule, the IC50 with A2780 ovarian cells (A2780, 96 h, read-out: Proliferation A2780 with Palmitate pIC50 (μM) (converted)) was 7.24 µM. Further, the concentration for a half-maximal effect (EC50) in the data set with HBV is > 5000 nM. Besides, the 50% cytotoxic concentration (CC50) at 4 days in data set [2] is > 25000 nM.
For the molecule `Cc1ccc(C(=O)N2CC(c3ccc(-c4cnn(C)c4)cc3)C2)cc1NC(=O)c1ccc(N2CCOCC2)nc1` [Compound #66, N-(2-methyl-5-(3-(4-(1-methyl-1H-pyrazol-4-yl)phenyl)azetidine-1-carbonyl)phenyl)-6-morpholinonicotinamide], in data set [1], the IC50 is 9.55 nM and the inhibition at 10 µM is 118%. Besides, the IC50 in the data set with A2780 ovarian cells (setting [3]) is > 15.1 µM.
For `Cc1ccc(C(=O)N2CC(c3ccc(-c4cnn(C)c4)cc3)C2)cc1NC(=O)c1ccc(N(C)C(C)C)nc1` [Compound #78, 6-(isopropyl(methyl)amino)-N-(2-methyl-5-(3-(4-(1-methyl-1H-pyrazol-4-yl)phenyl)azetidine-1-carbonyl)phenyl)nicotinamide], in data set [1], the IC50 was ~10.2 nM and the inhibition at 10 µM came out at 120%. Besides, the IC50 with A2780 ovarian cells (setting [3]) was ~15.1 µM.
With `CNc1ccc(C(=O)N2CCC(c3ccc(-c4cnn(C)c4)cc3)CC2)cc1NC(=O)c1ccc(NC(C)C)nc1` [Compound #279, 6-(isopropylamino)-N-(5-(4-(4-(1-methyl-1H-pyrazol-4-yl)phenyl)piperidine-1-carbonyl)-2-(methylamino)phenyl)nicotinamide], the IC50 in data set [1] is 41.7 nM; in the data set on A2780 ovarian cells (setting [3]) it was ~10 µM. In addition, in data set [1], the inhibition at 10 µM worked out at 98%.
